The values below come from ChEMBL document CHEMBL3639324, “Meta-substituted phenyl sulfonyl amides of secondary amino acid amides, the production thereof, and use thereof as matriptase inhibitors” (2013).

This assay has as its target T1, Suppressor of tumorigenicity 14 protein (Homo sapiens, UniProt Q9Y5Y6).
T1 sequence (Q9Y5Y6 whole entry): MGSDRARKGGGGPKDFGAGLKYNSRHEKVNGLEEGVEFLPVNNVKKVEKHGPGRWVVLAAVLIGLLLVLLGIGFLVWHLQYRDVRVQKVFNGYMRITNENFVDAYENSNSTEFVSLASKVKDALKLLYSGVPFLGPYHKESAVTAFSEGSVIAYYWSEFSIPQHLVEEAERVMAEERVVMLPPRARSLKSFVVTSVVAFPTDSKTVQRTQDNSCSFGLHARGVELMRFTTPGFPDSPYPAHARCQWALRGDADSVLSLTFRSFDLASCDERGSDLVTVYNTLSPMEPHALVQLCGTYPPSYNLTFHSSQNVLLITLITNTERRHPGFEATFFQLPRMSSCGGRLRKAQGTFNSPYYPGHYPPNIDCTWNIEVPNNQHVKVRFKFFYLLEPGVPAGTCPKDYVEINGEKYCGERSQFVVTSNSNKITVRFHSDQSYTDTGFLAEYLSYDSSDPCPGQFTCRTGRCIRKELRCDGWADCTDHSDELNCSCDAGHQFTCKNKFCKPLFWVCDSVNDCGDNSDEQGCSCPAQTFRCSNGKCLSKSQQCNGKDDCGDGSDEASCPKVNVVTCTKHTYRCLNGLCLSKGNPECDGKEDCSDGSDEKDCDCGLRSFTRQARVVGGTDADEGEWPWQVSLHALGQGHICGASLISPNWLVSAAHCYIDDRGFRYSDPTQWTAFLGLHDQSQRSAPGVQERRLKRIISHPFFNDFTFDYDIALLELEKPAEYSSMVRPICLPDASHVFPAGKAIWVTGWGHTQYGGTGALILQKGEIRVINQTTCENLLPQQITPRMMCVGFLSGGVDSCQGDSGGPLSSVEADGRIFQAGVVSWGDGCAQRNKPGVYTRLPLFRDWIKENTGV
The assay can be described thus: Inhibition Assay: Inhibition assay using matriptase enzyme.

In the case of `CNC(=O)CCCC1CCN(C(=O)[C@H](Cc2cccc(C(=N)N)c2)NS(=O)(=O)c2cccc(N3CCNCC3=O)c2)CC1`, the Ki was 24 nM.

The term Ki denotes the equilibrium dissociation constant of an inhibitor or competing ligand from its target.
